Assay results as given in PubChem BioAssay (NCI).
Where “and” joins values, the source holds several entries; their conditions need not be identical. Equal values may be shown once.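 Tested at 5 concentrations; 48 h exposure; 96-well plates; endpoints linearly interpolated, else capped at highest concentration. The concentration for 50% growth inhibition is given as GI50. Definition used: TGI = concentration required for complete inhibition of growth.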

What was measured:
Test in all cases: DTP human tumour cell line panel, 48 h
UACC-257 melanoma = system: UACC-257 melanoma
KM12 colon = system: KM12 colon
COLO 205 colon = system: COLO 205 colon
SF-295 CNS = system: SF-295 CNS
UACC-62 melanoma = system: UACC-62 melanoma
CAKI-1 renal = system: CAKI-1 renal
SNB-75 CNS = system: SNB-75 CNS
OVCAR-4 ovarian = system: OVCAR-4 ovarian
OVCAR-5 ovarian = system: OVCAR-5 ovarian
MOLT-4 leukemia = system: MOLT-4 leukemia

| Compound | GI50 (UACC-257 melanoma) | TGI (UACC-257 melanoma) | GI50 (KM12 colon) | TGI (KM12 colon) | GI50 (COLO 205 colon) | TGI (COLO 205 colon) | GI50 (SF-295 CNS) | TGI (SF-295 CNS) | GI50 (UACC-62 melanoma) | TGI (UACC-62 melanoma) | GI50 (CAKI-1 renal) | TGI (CAKI-1 renal) | GI50 (SNB-75 CNS) | TGI (SNB-75 CNS) | GI50 (OVCAR-4 ovarian) | TGI (OVCAR-4 ovarian) | GI50 (OVCAR-5 ovarian) | TGI (OVCAR-5 ovarian) | GI50 (MOLT-4 leukemia) | TGI (MOLT-4 leukemia) |
| --- | --- | --- | --- | --- | --- | --- | --- | --- | --- | --- | --- | --- | --- | --- | --- | --- | --- | --- | --- | --- |
| CCN1CCN(CC(=O)Nc2nc3ccc(NCc4ccc(C)cc4)cc3s2)CC1 | 3.33 µM | 11.3 µM | 5.67 µM | 13.8 µM | 1.03 µM | 2.1 µM | 2.4 µM | 9.06 µM | 1.01 µM | 2.06 µM | 3.48 µM | 10.5 µM | 2.69 µM | 9.42 µM | 6.24 µM | 16.2 µM | 5.63 µM | 13.4 µM | 1.59 µM | 5.99 µM |
| Cc1cc(Br)c2nsnc2c1[N+](=O)[O-] | 3.87 µM | 10.9 µM | 0.245 µM | 0.665 µM | 3.01 µM | 7.97 µM | 2.96 µM | 12.1 µM | 7.13 µM | 20 µM | 1.6 µM | 3.26 µM | 3.46 µM | 15.4 µM | 4.73 µM | 17.3 µM | 4.55 µM | 15.9 µM | 1.64 µM | 4.93 µM |
| Cc1cc(NS(=O)(=O)c2ccc(NC(=O)COc3ccc(-c4cc5ccccc5[nH]4)cc3)cc2)no1 | 2.07 µM | 6.27 µM | 1.51 µM | 3.24 µM | 1.78 µM | 3.27 µM | 1.94 µM | 4.91 µM | 1.53 µM | 3.26 µM | 2.57 µM | 9.28 µM | 1.5 µM | 4.68 µM | 1.53 µM | 3.98 µM | 2.26 µM | 5.68 µM | 2.05 µM | 9.72 µM |
| Cc1cc2oc(=O)c(Cl)c(Cl)c2c(C)c1Cl |  | 30 µM |  | 29.4 µM |  | 8.09 µM |  | 31.9 µM |  | 20.2 µM |  | 15.7 µM |  | 25.2 µM |  | 15.6 µM |  | 27.8 µM |  | 5.21 µM |
| Cc1ccc(C)c(NC(=O)C(=O)CC(=O)c2cccc3ccccc23)c1 |  | > 100 µM |  | > 100 µM |  | > 100 µM |  | > 100 µM |  | > 100 µM |  | > 100 µM |  | > 100 µM |  | > 100 µM |  | > 100 µM |  | > 100 µM |
| CC(=O)C(CN(C)Cc1ccccc1)C(c1ccccc1)c1c(O)c2ccccc2oc1=O (stereo not given) |  | > 100 µM |  | > 100 µM |  | > 100 µM |  | > 100 µM |  | > 100 µM |  | > 100 µM |  | > 100 µM |  | > 100 µM |  | > 100 µM |  | > 100 µM |
| COc1ccc2oc(-c3cc4cc(OC)ccc4o3)cc2c1 |  | > 100 µM |  | > 100 µM |  | > 100 µM |  | > 100 µM |  | > 100 µM |  | > 100 µM |  | > 100 µM |  | > 100 µM |  | > 100 µM |  | > 100 µM |
| [CH3][Sn]([CH3])([CH3])[O]C(=O)C(O)c1ccccc1 (stereo not given) | 4.25 µM | > 41.7 µM | 8.78 µM | > 100 µM | 4.93 µM | 23.7 µM | 3.67 µM | 16.9 µM | 2.11 µM | 4.49 µM | 4.95 µM | 34.5 µM | 5.61 µM | 54.3 µM | 7.51 µM | > 100 µM | 9.91 µM | 76.4 µM | 4.86 µM | > 100 µM |
| CCCCCCCCn1ccc2cc(NC(=O)Cn3cc(CN4CCC(C)CC4)nn3)ccc21 | 1.7 µM | 3.35 µM | 1.81 µM | 3.39 µM | 1.82 µM | 3.46 µM | 1.86 µM | 3.5 µM | 1.88 µM | 3.37 µM | 1.67 µM | 3.15 µM | 1.48 µM | 2.82 µM | 2.07 µM | 4.85 µM | 1.63 µM | 3.42 µM | 2.02 µM | 5.55 µM |
| O=C(O)/C(=C/c1ccccc1[N+](=O)[O-])c1cccs1 |  | > 100 µM |  | > 100 µM |  | > 100 µM |  | > 100 µM |  | > 100 µM |  | > 100 µM |  | > 100 µM |  | > 100 µM |  | > 100 µM |  | > 100 µM |
| O=C1c2ccccc2C(=O)c2c(NCCNCCO)ccc(NCCNCCO)c21 | 4.72 µM and 6.86 µM and 6.63 µM | 14.2 µM and 27.9 µM and 24.7 µM | 2.4 µM and 2.47 µM and 3.52 µM | 9.12 µM and 21.1 µM and 20.3 µM | 1.01 µM and 1.27 µM and 0.724 µM | 3 µM and 5.1 µM and 2.64 µM | 0.416 µM and 0.655 µM and 0.89 µM | 4.47 µM and 9.66 µM and 9.97 µM | 1.03 µM and 1.2 µM and 1.06 µM | 4.25 µM and 4.33 µM and 2.97 µM | 2.31 µM and 2.42 µM and 4.94 µM | 45.2 µM and > 45.9 µM and > 100 µM | 0.649 µM and 0.473 µM and 0.386 µM | 3.43 µM and 2.52 µM and 2.46 µM | 0.896 µM and 1.13 µM and 0.986 µM | 4.87 µM and 4.02 µM and 4.54 µM | 2.5 µM and 2.29 µM and 2.35 µM | 9.5 µM and 10.9 µM and 11.5 µM | 0.151 µM and 0.142 µM and 0.167 µM | 59.7 µM and 11.5 µM |
| Cc1ccc(C2NC(=S)N3C(c4ccc(C)cc4)NC(=S)N23)cc1 (stereo not given) | 10.3 µM | 22.6 µM | 4.04 µM | 17.4 µM | 6.07 µM | 18.5 µM | 2.92 µM | 11.8 µM | 1.88 µM | 11.7 µM | 2.68 µM | 7.01 µM | 2.87 µM | 12.1 µM | 9.89 µM | 21.9 µM | 14.7 µM | 28.2 µM | 5.82 µM | 18.9 µM |
